Laboratory results published in a compilation of properties of binary mixtures (doi:10.1016/j.molliq.2017.05.115).

Test: xn = mol fraction of the nth substance listed
Conditions: 101 kPa

Compound CC[n+]1ccn(C)c1.COS(=O)(=O)[O-] + CCCCCCCO has a speed of sound (298.15 K, x1 = 0.0836) of 1330.6 m/s, a speed of sound (298.15 K, x1 = 0.1703) of 1341.3 m/s and a speed of sound (298.15 K, x1 = 0.2602) of 1357.7 m/s. The speed of sound (298.15 K, x1 = 0.3537) was 1380.4 m/s, the speed of sound (298.15 K, x1 = 0.4508) was 1410.5 m/s and the speed of sound (298.15 K, x1 = 0.657) was 1499.2 m/s. It also gave a speed of sound (298.15 K, x1 = 0.8808) of 1646.1 m/s, a speed of sound (303.15 K, x1 = 0.0836) of 1319.6 m/s and a speed of sound (303.15 K, x1 = 0.1703) of 1330.5 m/s. For the same compound, the speed of sound (303.15 K, x1 = 0.2602) was 1346.9 m/s, the speed of sound (303.15 K, x1 = 0.3537) was 1369.7 m/s and the speed of sound (303.15 K, x1 = 0.4508) was 1399.9 m/s. It also gave a speed of sound (303.15 K, x1 = 0.5518) of 1438.8 m/s, a speed of sound (303.15 K, x1 = 0.657) of 1488.8 m/s and a speed of sound (303.15 K, x1 = 0.8808) of 1636.2 m/s. The speed of sound (308.15 K, x1 = 0.0836) was 1299.7 m/s, the speed of sound (308.15 K, x1 = 0.1703) was 1310.5 m/s and the speed of sound (308.15 K, x1 = 0.2602) was 1327 m/s. For the same compound, the speed of sound (308.15 K, x1 = 0.4508) was 1380.2 m/s, the speed of sound (308.15 K, x1 = 0.5518) was 1419.4 m/s and the speed of sound (308.15 K, x1 = 0.657) was 1469.8 m/s. It also gave a speed of sound (308.15 K, x1 = 0.7665) of 1534.7 m/s and a speed of sound (308.15 K, x1 = 0.8808) of 1619.5 m/s.
